Laboratory results reported in ChEMBL document CHEMBL3739285, “Fluorescent sulfonamide carbonic anhydrase inhibitors incorporating 1,2,3-triazole moieties: Kinetic and X-ray crystallographic studies” (Bioorg Med Chem, 2016).
Values after ≈ are worked out from the molar mass of the structure shown.

Tests used:
[1] = biological target: Carbonic anhydrase 14 (Homo sapiens, UniProt Q9ULX7)
Description: Inhibition of human carbonic anhydrase-14 preincubated for 15 mins by stopped flow CO2 dehydration method

[2] = biological target: Carbonic anhydrase 12 (Homo sapiens, UniProt O43570); assay: Inhibition of human carbonic anhydrase-12 preincubated for 15 mins by stopped flow CO2 dehydration method
Chain of Carbonic anhydrase 12 (O43570 whole entry): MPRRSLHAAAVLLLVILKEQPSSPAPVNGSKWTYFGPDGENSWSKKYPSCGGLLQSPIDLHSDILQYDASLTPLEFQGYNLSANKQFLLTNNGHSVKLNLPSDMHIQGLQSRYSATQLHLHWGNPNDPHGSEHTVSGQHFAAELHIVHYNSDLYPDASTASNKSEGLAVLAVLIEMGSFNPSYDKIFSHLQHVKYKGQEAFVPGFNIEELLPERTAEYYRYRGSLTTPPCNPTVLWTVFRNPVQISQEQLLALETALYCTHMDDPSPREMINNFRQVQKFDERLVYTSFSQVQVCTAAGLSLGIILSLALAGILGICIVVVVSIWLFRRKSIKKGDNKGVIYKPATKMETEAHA

[3] = Solubility of the compound in phosphate buffer at pH 7.4; format: physicochemical
[4] = biological target: Carbonic anhydrase 9 (Homo sapiens, UniProt Q16790)
Description: Inhibition of human carbonic anhydrase-9 preincubated for 15 mins by stopped flow CO2 dehydration method

[5] = biological target: Carbonic anhydrase 2 (Homo sapiens, UniProt P00918); assay: Inhibition of human carbonic anhydrase-2 preincubated for 15 mins by stopped flow CO2 dehydration method
[6] = biological target: Carbonic anhydrase 1 (Homo sapiens, UniProt P00915); assay: Inhibition of human carbonic anhydrase-1 preincubated for 15 mins by stopped flow CO2 dehydration method
Chain of Carbonic anhydrase 1 (P00915 whole entry): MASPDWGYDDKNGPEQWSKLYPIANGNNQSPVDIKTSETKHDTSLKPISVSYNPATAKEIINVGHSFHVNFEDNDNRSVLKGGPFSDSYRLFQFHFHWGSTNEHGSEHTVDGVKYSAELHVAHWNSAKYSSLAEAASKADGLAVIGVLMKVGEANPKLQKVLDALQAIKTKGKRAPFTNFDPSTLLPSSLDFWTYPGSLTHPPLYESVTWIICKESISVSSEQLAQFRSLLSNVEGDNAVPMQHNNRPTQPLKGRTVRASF

[7] = species: Homo sapiens; assay: Selectivity ratio of Ki for human carbonic anhydrase-9 to Ki for human carbonic anhydrase-2

Chain of Carbonic anhydrase 14 (Q9ULX7 whole entry): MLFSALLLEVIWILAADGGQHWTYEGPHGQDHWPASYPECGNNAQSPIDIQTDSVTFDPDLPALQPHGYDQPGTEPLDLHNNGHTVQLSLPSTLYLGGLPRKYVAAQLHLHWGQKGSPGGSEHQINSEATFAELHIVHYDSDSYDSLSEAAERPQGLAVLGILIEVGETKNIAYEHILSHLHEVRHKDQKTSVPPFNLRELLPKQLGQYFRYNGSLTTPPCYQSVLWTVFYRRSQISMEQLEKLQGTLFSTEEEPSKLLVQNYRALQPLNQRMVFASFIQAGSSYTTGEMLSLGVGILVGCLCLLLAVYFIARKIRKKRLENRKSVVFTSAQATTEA

Ki [1] [nM] | Ki [2] [nM] | solubility [3] [µg/mL] | Ki [4] [nM] | Ki [5] [nM] | Ki [6] [nM] | Ratio Ki [7] | Compound
33 | – | – | – | – | – | – | NS(=O)(=O)c1ccc(CCNC(=S)Nc2ccc(-c3c4ccc(=O)cc-4oc4cc(O)ccc34)c(C(=O)O)c2)cc1
41 | 7 | 1200 (≈ 2.08 mM) | – | – | – | – | NS(=O)(=O)c1ccc(CNC(=S)Nc2ccc(-c3c4ccc(=O)cc-4oc4cc(O)ccc34)c(C(=O)O)c2)cc1
– | 20.5 | – | 36.9 | 127 | 7630 | – | NS(=O)(=O)c1cccc(-n2cc(CNC(=S)Nc3ccc(-c4c5ccc(=O)cc-5oc5cc(O)ccc45)c(C(=O)O)c3)nn2)c1
31.4 | 10.7 | – | 24.3 | 88 | 6420 | 3.62 | CN(C)c1ccc2c(-c3ccc(NC(=S)NCc4cn(-c5cccc(S(N)(=O)=O)c5)nn4)cc3C(=O)O)c3ccc(=[N+](C)C)cc-3oc2c1
– | 4.1 | 3800 (≈ 5.91 mM) | 8.1 | 36 | 2560 | – | NS(=O)(=O)c1ccc(-n2cc(CNC(=S)Nc3ccc(-c4c5ccc(=O)cc-5oc5cc(O)ccc45)c(C(=O)O)c3)nn2)cc1
